Measured values reported in paper PMC3821638, “Molecular Cloning and Characterization of the Calcineurin Subunit A from Plutella xylostella” (International Journal of Molecular Sciences, 2013).
Like-named read-outs stand apart in the source and are kept apart here.

Molecular target: T1, Calcineurin subunit A (PxCNA), catalytic domain PxCNα (Plutella xylostella, UniProt V5U5Q7)
T1 construct: catalytic (phosphatase) domain CNA1–341 (PxCNα), His-tagged, expressed in E. coli
Test: pNPP phosphatase assay with purified recombinant rPxCNα, dose-response and enzyme kinetics
Type: biochemical

T1 sequence (V5U5Q7 1-341): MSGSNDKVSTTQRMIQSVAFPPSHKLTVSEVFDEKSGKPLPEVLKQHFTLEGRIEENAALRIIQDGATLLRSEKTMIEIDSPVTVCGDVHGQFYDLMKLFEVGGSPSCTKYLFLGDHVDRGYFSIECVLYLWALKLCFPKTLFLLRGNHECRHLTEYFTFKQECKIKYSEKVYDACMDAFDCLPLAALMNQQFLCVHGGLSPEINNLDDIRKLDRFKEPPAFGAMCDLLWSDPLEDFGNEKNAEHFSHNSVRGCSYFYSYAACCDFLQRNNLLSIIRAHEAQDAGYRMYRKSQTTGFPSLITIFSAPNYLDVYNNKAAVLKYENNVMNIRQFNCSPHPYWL

SMILES	IC50 [µM]	IC50 (read-out: IC50) [µM]
C[C@@]12C(=O)OC(=O)[C@]1(C)[C@H]1CC[C@@H]2O1 [CTD, cantharidin]	77.6	
C=C1[C@@H](O)[C@@H]2O[C@]3(CC[C@H](/C=C/[C@@H](C)[C@@H]4CC(C)=C[C@@]5(O[C@H](C[C@@](C)(O)C(=O)O)CC[C@H]5O)O4)O3)CC[C@H]2O[C@@H]1[C@@H](O)C[C@H](C)[C@H]1O[C@@]2(CCCCO2)CC[C@H]1C [OA, okadaic acid]		8.95
